Results reported in PMC5033074 (Nature chemical biology, 2016).
Like-named read-outs stand apart in the source and are kept apart here.

Experiments:
[1] = tested on: Pol II CTD Ser2 phosphorylation; conditions: cited from earlier work
[2] = tested on: Jurkat T-cell acute lymphoblastic leukemia cells; assay: Jurkat proliferation assay; assay type: cell-based, human; conditions: for antiproliferative activity in Jurkat cells: 72 hrs, CellTiter Glo
[3] = tested on: steady-state mRNA levels in Jurkat cells; assay: gene expression analysis; assay type: cell-based, human; conditions: for effect on steady-state mRNA levels: 500 nM, 6h
[4] = molecular target: CDK9-cyclin T1 (Homo sapiens, UniProt P50750); assay: radiometric in vitro kinase assay; assay type: biochemical; conditions: compared with THZ531
[5] = molecular target: CDK7-cyclin H-MAT1 (Homo sapiens, UniProt P50613); assay type: biochemical; conditions: compared with THZ531
[6] = tested on: Pol II CTD Ser2 phosphorylation; assay: Pol II CTD phosphorylation immunoblot; assay type: cell-based, human; conditions: Jurkat cells, 6 hrs
[7] = tested on: CDK12-cyclin K, CDK13-cyclin K and CDK7-cyclin H complexes; conditions: 1 µM biotinylated probe
[8] = molecular target: CDK12-cyclin K (Homo sapiens, UniProt Q9NYV4); assay type: biochemical; conditions: relative to THZ531
[9] = molecular target: CDK13-cyclin K (Homo sapiens, UniProt Q14004); assay: radiometric in vitro kinase assay; assay type: biochemical; conditions: relative to THZ531
[10] = molecular target: ERK1 (Homo sapiens, UniProt P27361); assay: kinase assay, control kinase; assay type: biochemical
[11] = tested on: pSer2 Pol II occupancy in Jurkat cells; assay: pSer2 Pol II ChIP-seq; assay type: cell-based, human
[12] = tested on: other 211 kinases; assay: KiNativ intracellular kinase profiling; conditions: ATP-desthiobiotin probe
[13] = molecular target: CDK12- cyclin K complex (Homo sapiens, UniProt Q9NYV4); assay: mass spectrometry of protein-inhibitor complex; assay type: binding; conditions: 17 µM complex, 25 µM compound, overnight at 4°C
[14] = tested on: Jurkat cells; assay: Annexin V / propidium iodide flow cytometry; assay type: cell-based, human
[15] = molecular target: CDK12-cyclin K complexes (Homo sapiens, UniProt Q9NYV4); assay: target-engagement assay; assay type: cell-based; conditions: competition with lysate-introduced bioTHZ1
[16] = molecular target: CDK13 (Homo sapiens, UniProt Q14004); assay: Ambit in vitro binding profiling
[17] = tested on: HAP1 cells; assay: HAP1 WT vs CDK12 C1039S proliferation assay; assay type: cell-based, human; conditions: 72 hours
[18] = molecular target: human CDK12 residues 715-1052 (human, UniProt Q9NYV4-1 715-1052, THZ531 covalently bound to Cys-1039; phosphorylated (site not stated)); assay: crystal structure
Sequence of human CDK12 residues 715-1052 (Q9NYV4 715-1052): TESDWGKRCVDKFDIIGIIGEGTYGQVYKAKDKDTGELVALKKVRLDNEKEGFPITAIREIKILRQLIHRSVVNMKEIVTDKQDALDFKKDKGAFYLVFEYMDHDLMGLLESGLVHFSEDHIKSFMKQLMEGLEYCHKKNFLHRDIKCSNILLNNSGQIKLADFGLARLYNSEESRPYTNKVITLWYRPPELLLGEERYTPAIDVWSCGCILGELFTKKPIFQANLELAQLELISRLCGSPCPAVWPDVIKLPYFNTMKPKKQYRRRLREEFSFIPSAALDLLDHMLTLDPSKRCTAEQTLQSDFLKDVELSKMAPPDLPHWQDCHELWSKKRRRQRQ

Sequence of CDK12-cyclin K (Q9NYV4 696-1082 limits assumed): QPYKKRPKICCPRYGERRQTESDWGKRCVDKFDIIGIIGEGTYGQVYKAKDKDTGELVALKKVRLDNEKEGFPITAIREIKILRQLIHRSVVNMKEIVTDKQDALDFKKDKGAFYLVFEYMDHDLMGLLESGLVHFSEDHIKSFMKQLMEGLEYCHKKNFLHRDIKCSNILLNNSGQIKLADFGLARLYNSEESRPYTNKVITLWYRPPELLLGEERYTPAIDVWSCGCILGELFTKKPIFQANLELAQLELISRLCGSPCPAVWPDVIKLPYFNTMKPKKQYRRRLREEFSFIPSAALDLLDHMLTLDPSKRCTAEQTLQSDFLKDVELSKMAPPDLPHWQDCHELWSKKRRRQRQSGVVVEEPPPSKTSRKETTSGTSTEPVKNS
Sequence of CDK12-cyclin K (O75909 1-267 partner limits assumed): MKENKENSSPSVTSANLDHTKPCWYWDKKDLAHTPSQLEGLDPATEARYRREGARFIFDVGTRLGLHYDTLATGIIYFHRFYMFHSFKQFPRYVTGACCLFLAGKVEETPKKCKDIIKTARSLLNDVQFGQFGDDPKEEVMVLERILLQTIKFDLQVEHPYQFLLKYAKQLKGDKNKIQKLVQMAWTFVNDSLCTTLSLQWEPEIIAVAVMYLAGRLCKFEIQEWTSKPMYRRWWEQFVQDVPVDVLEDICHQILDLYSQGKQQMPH
Sequence of CDK9-cyclin T1 (P50750 whole entry): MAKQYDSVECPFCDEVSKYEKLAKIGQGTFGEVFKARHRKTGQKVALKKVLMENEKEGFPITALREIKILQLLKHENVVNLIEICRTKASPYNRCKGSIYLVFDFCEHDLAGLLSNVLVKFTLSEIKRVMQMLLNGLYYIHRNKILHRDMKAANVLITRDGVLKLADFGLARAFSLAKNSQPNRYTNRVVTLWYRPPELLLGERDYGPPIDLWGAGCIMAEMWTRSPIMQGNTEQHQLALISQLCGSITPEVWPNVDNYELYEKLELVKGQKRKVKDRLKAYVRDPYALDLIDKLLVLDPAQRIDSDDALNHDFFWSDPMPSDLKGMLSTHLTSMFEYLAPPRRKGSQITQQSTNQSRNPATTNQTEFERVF
Sequence of CDK9-cyclin T1 (O60563 1-272 partner limits assumed): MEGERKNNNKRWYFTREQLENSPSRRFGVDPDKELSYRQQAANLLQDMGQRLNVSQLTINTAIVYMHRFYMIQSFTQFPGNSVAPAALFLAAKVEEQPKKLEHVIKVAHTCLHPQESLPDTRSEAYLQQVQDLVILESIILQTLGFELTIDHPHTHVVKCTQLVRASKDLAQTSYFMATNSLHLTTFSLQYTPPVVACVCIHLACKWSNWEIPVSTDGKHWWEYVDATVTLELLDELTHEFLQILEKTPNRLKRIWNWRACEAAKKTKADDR
Sequence of CDK13-cyclin K (Q14004 694-1039 limits assumed): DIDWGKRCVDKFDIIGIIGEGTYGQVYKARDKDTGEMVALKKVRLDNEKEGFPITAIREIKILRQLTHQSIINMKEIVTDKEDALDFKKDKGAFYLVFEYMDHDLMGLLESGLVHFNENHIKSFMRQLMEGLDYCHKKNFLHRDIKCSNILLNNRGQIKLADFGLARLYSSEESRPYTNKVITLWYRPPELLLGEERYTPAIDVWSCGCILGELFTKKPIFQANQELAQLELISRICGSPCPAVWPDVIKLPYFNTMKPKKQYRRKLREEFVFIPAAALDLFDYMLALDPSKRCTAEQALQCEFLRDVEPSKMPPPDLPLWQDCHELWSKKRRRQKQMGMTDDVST
Sequence of CDK13-cyclin K (O75909 1-267 partner limits assumed): as the sequence (O75909 1-267 partner limits assumed) above
Sequence of CDK7-cyclin H-MAT1 (P50613 whole entry): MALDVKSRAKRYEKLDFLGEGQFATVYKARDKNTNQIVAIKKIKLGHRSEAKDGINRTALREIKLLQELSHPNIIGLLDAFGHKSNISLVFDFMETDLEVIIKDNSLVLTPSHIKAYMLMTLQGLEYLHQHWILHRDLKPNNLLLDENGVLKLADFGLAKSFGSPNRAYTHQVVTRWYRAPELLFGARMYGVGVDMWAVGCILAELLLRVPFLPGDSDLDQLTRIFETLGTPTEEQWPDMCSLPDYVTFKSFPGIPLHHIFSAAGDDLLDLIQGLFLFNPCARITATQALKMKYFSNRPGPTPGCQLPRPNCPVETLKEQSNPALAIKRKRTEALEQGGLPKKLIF
Sequence of CDK7-cyclin H-MAT1 (P51946 whole entry partner): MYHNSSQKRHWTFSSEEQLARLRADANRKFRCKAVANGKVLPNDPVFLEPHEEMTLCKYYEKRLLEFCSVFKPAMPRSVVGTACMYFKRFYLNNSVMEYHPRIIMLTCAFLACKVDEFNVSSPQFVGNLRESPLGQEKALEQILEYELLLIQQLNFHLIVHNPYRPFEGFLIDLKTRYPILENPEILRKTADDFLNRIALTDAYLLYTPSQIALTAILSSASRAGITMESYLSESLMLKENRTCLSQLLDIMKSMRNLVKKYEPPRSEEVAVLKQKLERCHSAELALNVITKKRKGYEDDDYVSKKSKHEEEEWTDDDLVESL
Sequence of CDK7-cyclin H-MAT1 (P51948 whole entry partner): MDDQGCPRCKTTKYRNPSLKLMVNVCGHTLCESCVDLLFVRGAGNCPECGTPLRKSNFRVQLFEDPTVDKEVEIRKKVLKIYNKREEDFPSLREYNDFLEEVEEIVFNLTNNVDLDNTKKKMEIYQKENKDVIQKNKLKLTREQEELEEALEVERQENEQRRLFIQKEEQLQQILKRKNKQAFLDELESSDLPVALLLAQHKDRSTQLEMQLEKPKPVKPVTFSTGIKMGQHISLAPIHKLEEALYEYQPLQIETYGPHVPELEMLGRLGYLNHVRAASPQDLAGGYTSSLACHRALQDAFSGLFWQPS
Sequence of CDK12- cyclin K complex (Q9NYV4 715-1052, one chain of several): as the sequence (Q9NYV4 715-1052) above
Sequence of ERK1 (P27361 whole entry, species assumed): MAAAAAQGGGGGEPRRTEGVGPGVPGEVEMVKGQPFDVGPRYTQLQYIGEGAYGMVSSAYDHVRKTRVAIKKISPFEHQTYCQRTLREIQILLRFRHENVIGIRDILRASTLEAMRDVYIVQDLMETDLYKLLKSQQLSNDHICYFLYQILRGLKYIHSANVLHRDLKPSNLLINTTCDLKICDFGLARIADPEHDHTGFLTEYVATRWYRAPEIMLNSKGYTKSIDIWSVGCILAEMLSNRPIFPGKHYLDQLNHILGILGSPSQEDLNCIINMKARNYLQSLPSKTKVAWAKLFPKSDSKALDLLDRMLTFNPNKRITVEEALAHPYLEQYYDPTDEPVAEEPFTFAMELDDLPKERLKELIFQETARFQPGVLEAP
Sequence of CDK13 (Q14004 whole entry): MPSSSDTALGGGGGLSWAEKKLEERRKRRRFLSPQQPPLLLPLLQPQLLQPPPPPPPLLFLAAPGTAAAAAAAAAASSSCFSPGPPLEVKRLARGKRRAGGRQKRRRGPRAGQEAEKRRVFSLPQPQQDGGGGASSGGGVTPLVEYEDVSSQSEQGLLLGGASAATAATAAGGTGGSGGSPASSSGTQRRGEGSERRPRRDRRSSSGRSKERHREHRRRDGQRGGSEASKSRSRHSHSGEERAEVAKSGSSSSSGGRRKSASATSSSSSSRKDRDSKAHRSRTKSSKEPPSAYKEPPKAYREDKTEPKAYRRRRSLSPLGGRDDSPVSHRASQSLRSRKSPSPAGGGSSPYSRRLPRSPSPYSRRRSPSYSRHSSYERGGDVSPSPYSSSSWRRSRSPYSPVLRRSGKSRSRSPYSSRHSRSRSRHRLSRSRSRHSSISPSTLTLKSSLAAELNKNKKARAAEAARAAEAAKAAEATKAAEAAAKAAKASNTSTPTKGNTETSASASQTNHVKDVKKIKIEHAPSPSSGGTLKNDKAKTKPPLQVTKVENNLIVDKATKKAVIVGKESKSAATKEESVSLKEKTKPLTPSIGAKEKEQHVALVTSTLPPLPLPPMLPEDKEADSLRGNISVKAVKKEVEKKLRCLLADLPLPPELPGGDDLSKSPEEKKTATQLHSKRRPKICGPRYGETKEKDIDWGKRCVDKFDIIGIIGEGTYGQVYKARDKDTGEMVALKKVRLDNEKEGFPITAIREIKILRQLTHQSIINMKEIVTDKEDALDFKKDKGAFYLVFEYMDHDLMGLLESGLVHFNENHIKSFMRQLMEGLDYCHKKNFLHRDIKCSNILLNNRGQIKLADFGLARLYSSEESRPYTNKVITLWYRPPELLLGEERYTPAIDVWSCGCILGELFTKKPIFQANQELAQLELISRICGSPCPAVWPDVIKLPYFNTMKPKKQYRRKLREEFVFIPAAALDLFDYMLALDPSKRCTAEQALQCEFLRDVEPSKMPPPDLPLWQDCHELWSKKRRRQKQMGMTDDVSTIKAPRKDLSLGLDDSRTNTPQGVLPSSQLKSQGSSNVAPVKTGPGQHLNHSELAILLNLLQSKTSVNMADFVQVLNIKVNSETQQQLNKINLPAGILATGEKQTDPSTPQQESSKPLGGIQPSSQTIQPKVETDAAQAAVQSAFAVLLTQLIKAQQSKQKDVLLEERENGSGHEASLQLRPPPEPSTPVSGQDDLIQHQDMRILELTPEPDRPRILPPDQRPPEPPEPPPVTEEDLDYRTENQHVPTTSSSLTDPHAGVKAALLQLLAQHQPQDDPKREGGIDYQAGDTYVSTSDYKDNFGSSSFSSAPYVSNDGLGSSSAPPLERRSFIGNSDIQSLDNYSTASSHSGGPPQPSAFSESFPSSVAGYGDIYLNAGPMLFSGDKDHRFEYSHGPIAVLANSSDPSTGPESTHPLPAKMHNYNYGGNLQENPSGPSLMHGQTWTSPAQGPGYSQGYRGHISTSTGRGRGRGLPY

Which “effect on Pol II CTD phosphorylation” value [1] does the source give for `CN(C)C/C=C/C(=O)Nc1ccc(C(=O)Nc2cccc(Nc3ncc(Cl)c(-c4c[nH]c5ccccc45)n3)c2)cc1` [THZ1] here?
Its value is “complete loss of Pol II CTD phosphorylation”.

For `CN(C)C/C=C/C(=O)Nc1ccc(C(=O)N2CCC[C@H](Nc3ncc(Cl)c(-c4c[nH]c5ccccc45)n3)C2)cc1` [THZ532, (S,E)-N-(4-(3-((5-chloro-4-(1H-indol-3-yl)pyrimidin-2-yl)amino)piperidine-1-carbonyl)phenyl)-4-(dimethylamino)but-2-enamide], which “antiproliferative activity in Jurkat cells” value [2] is on record?
The value was “minimal antiproliferative activity”.

And the “effect on steady-state mRNA levels” value [3]?
Its value is “decreased neither Ser2 phosphorylation nor steady-state mRNA levels”.

And the “inhibition activity on CDK9” value [4]?
Its value is “similarly–low–inhibition activity”.

And the “inhibition activity on CDK7” value [5]?
The value was “similarly–low–inhibition activity”.

And the “effect on Pol II CTD phosphorylation” value [6]?
The value was “decreased neither Ser2 phosphorylation”.

Which complexes pulled down [7] does the source give for `CC1NC(=O)NC1CCCCCC(=O)NCCOCCOCCOCCNC(=O)CCN(C)C/C=C/C(=O)Nc1ccc(C(=O)N2CCC[C@@H](Nc3ncc(Cl)c(-c4c[nH]c5ccccc45)n3)C2)cc1` (stereo partly drawn) [bioTHZ531, N-((E)-20-((4-((R)-3-((5-chloro-4-(1H-indol-3-yl)pyrimidin-2-yl)amino)piperidine-1-carbonyl)phenyl)amino)-16-methyl-13,20-dioxo-3,6,9-trioxa-12,16-diazaicos-18-en-1-yl)-6-(5-methyl-2-oxoimidazolidin-4-yl)hexanamide] here?
The complexes pulled down was “pulls down CDK12-cyclin K and CDK13-cyclin K complexes, but not CDK7-cyclin H complexes”.

For `CN(C)CCCC(=O)Nc1ccc(C(=O)N2CCC[C@@H](Nc3ncc(Cl)c(-c4c[nH]c5ccccc45)n3)C2)cc1` [THZ531R, (R)-N-(4-(3-((5-chloro-4-(1H-indol-3-yl)pyrimidin-2-yl)amino)piperidine-1-carbonyl)phenyl)-4-(dimethylamino)butanamide], which “antiproliferative activity in Jurkat cells” value [2] is on record?
The value was “minimal antiproliferative activity”.

What about the “fold less active on CDK12 than THZ531” value [8] of the same molecule?
The value was 50–100 fold.

And the “fold less active on CDK12 than THZ531” value ([8]; listed as reversible analog)?
Its value is “more than 100 fold”.

And the “fold less active on CDK13 than THZ531” value [9]?
The value was 50–100 fold.

And the “fold less active on CDK13 than THZ531” value ([9]; listed as reversible analog)?
The value was “more than 100 fold”.

What about the “effect on steady-state mRNA levels” value [3] of the same molecule?
The value was “decreased neither Ser2 phosphorylation nor steady-state mRNA levels”.

And the “inhibition activity on CDK9” value [4]?
The value was “similarly–low–inhibition activity”.

And the “inhibition activity on CDK7” value [5]?
Its value is “similarly–low–inhibition activity”.

And the “effect on Pol II CTD phosphorylation” value [6]?
The value was “decreased neither Ser2 phosphorylation”.

What does the source list for `CN(C)C/C=C/C(=O)Nc1ccc(C(=O)N2CCC[C@@H](Nc3ncc(Cl)c(-c4c[nH]c5ccccc45)n3)C2)cc1` [THZ531, (R,E)-N-(4-(3-((5-chloro-4-(1H-indol-3-yl)pyrimidin-2-yl)amino)piperidine-1-carbonyl)phenyl)-4-(dimethylamino)but-2-enamide]?
IC50 ([2]; Homo sapiens, Jurkat, 72 h, read-out: IC50 Jurkat cell proliferation): 50 nM; inhibitory effect on ERK1 [10]: no appreciable inhibitory effect; pSer2 ChIP-seq signal ([11]; 50 nM): did not appreciably change pSer2 ChIP-seq signal; pSer2 ChIP-seq signal ([11]; 500 nM): dramatic decrease in 3’ end –associated pSer2 ChIP-seq signal; labeling of the other 211 kinases (not CDK12 and 13) [12]: ≤ 55%; covalent binding to CDK12-cyclin K [13]: Near complete covalent binding; expression of core DDR genes BRCA1, FANCF, ERCC4 ([3]; 50 nM): substantial loss of expression; percentage of apoptotic cells over DMSO control ([14]; 50 nM, time course of the experiment): no increase in the percentage of apoptotic cells; annexin V-positively stained cells ([14]; higher doses (above 50 nM), by 72 hrs): 30–40%; binding to intracellular CDK12-cyclin K vs CDK7-cyclin H [15]: binds intracellular CDK12-cyclin K complexes with higher affinity than CDK7-cyclin H complexes; Ambit profiling score of CDK13 [16]: among the top scoring kinases; effect on Pol II CTD phosphorylation [6]: selectively reduced Ser2 phosphorylation levels without appreciable effect on CTD pSer5/pSer7 levels; effect of CDK12 C1039S substitution on antiproliferative effect [17]: partial restoration of cellular proliferation

Which complexes pulled down [7] does the source give for `CN(C/C=C/C(=O)Nc1ccc(C(=O)Nc2cccc(Nc3ncc(Cl)c(-c4c[nH]c5ccccc45)n3)c2)cc1)CCCNC(=O)NCCOCCOCCOCCNC(=O)CCCC[C@@H]1SC[C@@H]2NC(=O)N[C@@H]21` [bioTHZ1, reference compound] here?
Its complexes pulled down is “pulls down CDK7, CDK12, and 13 complexes”.

B1: human cyclin K residues 11-267 (domain or fragment, UniProt O75909 11-267, looked up)
chain: SVTSANLDHTKPCWYWDKKDLAHTPSQLEGLDPATEARYRREGARFIFDVGTRLGLHYDTLATGIIYFHRFYMFHSFKQFPRYVTGACCLFLAGKVEETPKKCKDIIKTARSLLNDVQFGQFGDDPKEEVMVLERILLQTIKFDLQVEHPYQFLLKYAKQLKGDKNKIQKLVQMAWTFVNDSLCTTLSLQWEPEIIAVAVMYLAGRLCKFEIQEWTSKPMYRRWWEQFVQDVPVDVLEDICHQILDLYSQGKQQMPH
Does B1 bind [18]?
Result: binds
